Data set [1] has as its system H. jannaschiana stationary phase cells. Kind of data set: Repression of exoprotease synthesis in stationary phase cells in growth media (azocasein assay). To be noted: for activity / activity at 100000 µM: Hyphomonas jannaschiana, read-out: Enzyme activity (%) in growth media. The format is cell-based, Hyphomonas jannaschiana VP3. As for the experimental part: (§1) Samples of the cell culture supernatants, the toluenized cells, and the cell lysates were each tested for protease activity using an azocasein assay, such as described by Long et al., J. Gen. Microbiol. 127:193-199 (1981). One unit of enzyme activity was considered equivalent to an increased absorbance of 0.1 units at a wavelength of 440 nm after a 30 minute incubation at 42° C.
The stationary phase cells were resuspended in a one-tenth volume of MB, then incubated for 30 minutes at 37° C. Exoprotease activity was determined at hourly intervals following introduction of single amino acids at a final concentrations of 0.1% (v/v) o The assay was conducted over a period of 3 hours.
In a similar manner, protease activity was determined following the introduction of 100 mM (NH4)2 SO4 (ammonium sulfate) or 1% casamino acids to the growth medium.

Data set [2] deals with H. jannaschiana extracellular protease. As to the kind of experiment: Effect of amino acids, casamino acids or (NH4)2SO4 on cell-free protease suspension (azocasein assay). The format is biochemical, Hyphomonas jannaschiana VP3. On the set-up: Enzyme activity (%) in cell free supernatant: concentration or dose not given beside the values. To be noted: for Enzyme activity (%) in cell free supernatant: cell-free protease suspension, 10 minute incubation, same additions, control = 100. As for the experimental part: as §1
In the alternative, after allowing protease synthesis and export to proceed for 2.5 hours, the cells were removed by centrifugation, and the supernatant was passed through a 0.22 μm filter. The cell-free protease suspension was then treated, as described above, with single amino acids, casamino acids, or (NH4)2 SO4. Then, enzyme activity was determined following a 10 minute incubation period.

The subject of data set [3] is H. jannaschiana exoprotease. As to the kind of experiment: Recovery of chemically inhibited protease activity by Zn2+ and Ca2+. The data set is classed as biochemical, Hyphomonas jannaschiana VP3. As to conditions: for restoration of activity to EDTA-inactivated enzyme: 100 mM EDTA, ZnCl2 or CaCl2, 25° C.; for effect of additional ions on activity of the native protease: no inhibitor. As for the experimental part: The ability of the divalent cations Zn^2+ and Ca^2+ to restore enzyme activity to inactivated exoprotease was examined by introducing either 5 mM ZnCl2 or 100 mM CaCl2 at a 1:1 molar ratio of ion to inhibitor to the preparations described in Example 4. Following incubation at 25° C. for 15 minutes, protease activity was assayed.

The subject of data set [4] is H. jannaschiana exoprotease. Kind of data set: Chemical inhibition of protease activity in filtered culture supernatant. The format is biochemical, Hyphomonas jannaschiana VP3. As to conditions: for exoprotease activity in additional assays, data not shown (in words): concentration not given; for protease activity after exposure to inhibitor (in words): 5 mM o-phenanthroline, 60 mM PMSF, 100 mM EDTA, 80 mM EGTA. On the procedure: as §1
The effect of various protease inhibitors on the production of H. jannaschiana exoprotease was tested by measuring protease activity following the incubation of the cells with each inhibitor. Stationary phase cells, grown in MB, were pelleted and resuspended in fresh media at one-tenth of the original culture volume. The cell suspension was incubated at 37° C. for 2.5 hours to permit synthesis and export of exoprotease into the culture supernatant. Then the cells were removed by centrifugation and the supernatant was sterilized by filtration through a 0.22 μm filter.
Protease activity was measured after exposure to each inhibitor at 25° C. for 15 minutes. The inhibitors were added at the following final concentrations: 5 mM o-phenanthroline, 60 mM […] (PMSF), 10 mM and 25 mM p-chloromercuribenzoic acid (pCMB), 100 mM EDTA, 80 mM ethylene glycol bis(beta-amino-ethylether)N,N,N',N'-tetraacetic acid (EGTA).
Each bar represents treatment of the exoprotease with the following: 1=untreated exoprotease; 2=o-phenan-throline; 3=o-phenanthroline and ZnCl; 4=ZnCl; 5=EGTA; 6=EGTA and CaCl; 7=CaCl; 8=EDTA; 9=EDTA and ZnCl; 10=EDTA and CaCl; 11=pCMB (10 mM, final conc.); 12=pCMB (25 mM, final conc.); and 13=PMSF. The enzyme activity was expressed as a percentage of the activity measured in the untreated control.

The subject of data set [5] is functional extracellular protease. As to the kind of experiment: Quinacrine on functional extracellular protease activity. The format is biochemical, Hyphomonas jannaschiana.
Data set [6] deals with H. jannaschiana stationary phase cells. As to the kind of experiment: Inhibition of protease export by quinacrine in non-proliferating stationary phase cells. The data set is classed as cell-based. As to conditions: Hyphomonas jannaschiana; for activity at 25 µM: 0.025 mM quinacrine, read-out: Enzyme activity relative to untreated control. On the procedure: (§2) Thus, protease export was examined in the presence of quinacrine, a signal peptidase inhibitor. Protease export in the presence of quinacrine was examined using two approaches. An actively growing culture of H. jannaschiana was monitored with respect to both optical density at 550 nm and extracellular enzyme activity in the presence of 0.025 mM quinacrine. In order to eliminate the effect of quinacrine on H. jannaschiana growth, cells were initially propagated to stationary phase, and subsequently maintained in the non-proliferating state by 10-fold concentration in fresh media which was supplemented with 0.025 mM quinacrine.

Data set [7] deals with actively growing culture of H. jannaschiana. As to the kind of experiment: Quinacrine on an actively growing culture (optical density and extracellular enzyme activity). The data set is classed as cell-based, Hyphomonas jannaschiana. To be noted: 0.025 mM quinacrine. As for the experimental part:
as §2

A short description of data set [8]: Thermal stability of H. jannaschiana exoprotease (azocasein assay). As to conditions: for enzyme activity remaining after incubation at 75° C. for 30 minutes: filtered stationary phase culture supernatant, pH 9. The data set is classed as physicochemical, Hyphomonas jannaschiana. On the procedure: Filtered supernatant containing Hyphomonas jannaschiana exoprotease was maintained at 75° C. and 100° C. for various periods of time. Then, the enzyme was allowed to recalibrate to 25° C., and subsequently assayed for protease activity using the azocasein assay.

Data set [9] is described as follows: Properties of the purified thermostable alkaline metalloprotease (pH and temperature optimum, pH stability, pI). On the set-up: species or system Hyphomonas jannaschiana.
Setting [10] is: stationary phase cells in one-tenth volume MB, 37° C., single amino acids 0.1% (v/v), 100 mM (NH4)2SO4 or 1% casamino acids, control = 100.
The mark [11] stands for this setting: stationary phase cells in one-tenth volume MB, 37° C., single amino acids 0.1% (v/v), control = 100.
[12] abbreviates: listed as alkaline exoprotease produced by H. jannaschiana.

Entries after “also recorded” stand apart in the source; their conditions may differ. Read-outs that look alike come from different tables or passages of the source.

Turning to `N.N.O=S(=O)(O)O` [(NH4)2 SO4, ammonium sulfate], the “reduction in the synthesis of the exoprotease” value in [1] (100 mM (NH4)2SO4) was “approximately 50%”. Besides, the “Enzyme activity (%) in growth media” value in data set [1] (setting [10]) was 56%. The “Enzyme activity (%) in cell free supernatant” value in [2] turned out to be 100%. Further, the “extracellular enzyme activity in cell-free growth media (in words)” value in data set [2] (exposed to the added substance) was “no affect”.
As for `[Ca+2].[Cl-].[Cl-]` [Ca^2+, CaCl2], in data set [3] (80 mM EGTA, CaCl2 at 1:1 ion to inhibitor, 25° C., 15 minutes), the “restoration of activity to EGTA-inhibited exoprotease” value was “reversible; also recorded: restored”. In addition, the “restoration of activity to EDTA-inactivated enzyme” value in data set [3] (15 minutes) is listed as “partially restored”. The “effect of additional ions on activity of the native protease” value in [3] is recorded as “no detectable effect”.
For `CC(C)CC(NC(=O)C1OC1C(=O)O)C(=O)NCCCCNC(=N)N` (centres unmarked) [E64], the “exoprotease activity in additional assays, data not shown (in words)” value in data set [4] is reported as “not affected”.
For `O=C(O)CN(CCN(CC(=O)O)CC(=O)O)CC(=O)O` [EDTA, ethylenediaminetetra-acetic acid], the “EDTA concentration necessary to inhibit enzyme activity” value in data set [4] is recorded as “greater than 10^-2 M”. In addition, in [4] (25° C., 15 minutes), the “protease activity after exposure to inhibitor (in words)” value was “inhibited”.
`O=C(O)CN(CCOCCOCCN(CC(=O)O)CC(=O)O)CC(=O)O` [EGTA, ethylene glycol bis(beta-amino-ethylether)N,N,N',N'-tetraacetic acid]: the “protease activity after exposure to inhibitor (in words)” value in data set [4] (25° C., 15 minutes) is given as “totally inhibited”.
Still for that read-out and setting: to `O=S(=O)(F)Cc1ccccc1` [PMSF, phenylmethyl sulfonamide fluoride] belongs “unaffected; also recorded: not affected”.
`[Cl-].[Cl-].[Zn+2]` [Zn^2+, ZnCl2]: the “restoration of activity to o-phenanthroline-inhibited exoprotease” value in data set [3] (5 mM o-phenanthroline, 5 mM ZnCl2, 1:1 ion to inhibitor, 25° C., 15 minutes) is on record as “reactivated; also recorded: restored”. In addition, in [3] (15 minutes), the “restoration of activity to EDTA-inactivated enzyme” value is on record as “partially restored”. The “effect of additional ions on activity of the native protease” value in [3] was “significantly increased”.
In the case of `C[C@H](N)C(=O)O` [alanine], in data set [2], the “Enzyme activity (%) in cell free supernatant” value worked out at 56%.
`N[C@@H](CC(=O)O)C(=O)O` [aspartic acid]: the activity in data set [1] (setting [11]) stood at 79%. The “Enzyme activity (%) in cell free supernatant” value in data set [2] was 60%.
For `N[C@@H](CCC(=O)O)C(=O)O` [glutamic acid], the activity at 100000 µM in [1] came to 86%. The “Enzyme activity (%) in cell free supernatant” value in data set [2] worked out at 52%.
On to `NC(=O)CC[C@H](N)C(=O)O` [glutamine], for which the “Enzyme activity (%) in cell free supernatant” value in [2] is on record as 52%.
`NCC(=O)O` [glycine]: the activity at 100000 µM in data set [1] (setting [10]) stood at 69%. The “Enzyme activity (%) in cell free supernatant” value in [2] worked out at 82%.
Turning to `N[C@@H](Cc1c[nH]cn1)C(=O)O` [histidine], the activity in data set [1] (setting [11]) stood at 87%. The “Enzyme activity (%) in cell free supernatant” value in data set [2] was found to be 83%.
Regarding `CC(C)C[C@H](N)C(=O)O` [leucine], in [2], the “Enzyme activity (%) in cell free supernatant” value was 69%.
On to `OCCS` [mercaptoethanol], for which, in data set [4], the “exoprotease activity in additional assays, data not shown (in words)” value was “abolished”.
With `c1cnc2c(c1)ccc1cccnc12` [o-phenanthroline], the “protease activity after exposure to inhibitor (in words)” value in data set [4] (25° C., 15 minutes) is given as “totally inhibited”.
Take `O=C(O)c1cc[c]([Hg][Cl])cc1` [pCMB, p-chloromercuribenzoic acid]: the “protease activity after exposure to low concentration of pCMB (in words)” value in [4] (10 mM pCMB, 25° C., 15 minutes) was “unaffected; also recorded: not affected”. Moreover, the “protease activity after exposure to high concentration of pCMB (in words)” value in data set [4] (25 mM pCMB, 25° C., 15 minutes) is listed as “reduced”.
Turning to `O=C(O)[C@@H]1CCCN1` [proline], the activity at 100000 µM in [1] (setting [10]) worked out at 108%. Moreover, the “Enzyme activity (%) in cell free supernatant” value in [2] turned out to be 93%.
On to `CCN(CC)CCCC(C)Nc1c2ccc(Cl)cc2nc2ccc(OC)cc12` (centres unmarked) [quinacrine], for which, in data set [5], the “effect on functional extracellular protease activity (in words)” value is given as “no affect”. Moreover, the activity at 25 µM in data set [6] (0.5 h, time 30 min) turned out to be 100%; in data set [6] (40 min, time 40 min) it was 33%; in data set [6] (1 h, time 60 min), 50%; in data set [6] (1.5 h, time 90 min), 78%; in data set [6] (2 h, time 120 min), 82%; in data set [6] (3 h, time 180 min), 90%. Further, the inhibition at 25 µM in data set [6] (40 min, 40 minutes after the addition of quinacrine, read-out: reduction in exported enzyme) was determined as 67%; in data set [7] (Hyphomonas jannaschiana, 7 h, seven hours after treatment, read-out: exoprotease activity diminished vs untreated cells), 73%. For the same molecule, the “cell density and exoprotease activity after an additional 6 hour growth period (in words)” value in [7] is “returned to normal levels”. In addition, the inhibition of growth at 25 µM in data set [7] (Hyphomonas jannaschiana, 7 h, seven hours after treatment, OD 550 nm, read-out: reduction of optical density of the culture vs untreated cells) is 48%.
Take `N[C@@H](CO)C(=O)O` [serine]: in [1] (setting [11]), the activity amounted to 79%. In addition, the “Enzyme activity (%) in cell free supernatant” value in data set [2] was 64%.
As for `N[C@@H](Cc1c[nH]c2ccccc12)C(=O)O` [tryptophan], the “Enzyme activity (%) in cell free supernatant” value in data set [2] is 56%.

B1: H. jannaschiana exoprotease: extracellular thermostable alkaline metalloprotease, approximately 80,000 daltons, produced by Hyphomonas jannaschiana VP3 (protein)
chain: EICRIVMDGHCEKQGDAECHDDQQSARPADQRINQDVEQVDDQFEEQGPGRNVCGINVFGS
Regarding B1, in [8], the “activity remaining after boiling at 100° C. for 5 minutes” value is on record as “at least 41%” and the “enzyme activity remaining after incubation at 75° C. for 30 minutes” value was “at least 60%”. Further, the “decrease of exoprotease activity after incubation at 75° C. for 30 minutes” value in [8] (azocasein assay) is “about 40%”. Besides, in data set [8] (filtered culture supernatant), the “reduction of extracellular protease activity after 100° C. (boiling) for 5 minutes” value stood at 41%. Also, in data set [8] (setting [12]), the “enzyme activity remaining after incubation at 75° C. for 30 minutes” value is recorded as “Over 60%” and the “proteolytic activity after boiling for 5 minutes (in words)” value is given as “failed to destroy”. Moreover, the “proteolytic activity after boiling for 5 minutes (in words)” value in data set [8] (listed as thermostable alkaline exoprotease) is recorded as “did not destroy”. Besides, the “isoelectric point pI” value in data set [9] is given as 4.8. Besides, in data set [9] (reacted at pH 9), the optimal temperature is 45 °C. For the same molecule, the “optimal pH” value in data set [9] (reaction temperature of about 60° to 65° C.) was “approximately 9.5”.
